Read-outs that look alike come from different tables or passages of the source.
Tested on: PAF-induced rabbit platelet aggregation
Experiment: PAF-induced rabbit platelet aggregation
Assay type: cell-based, rabbit (New Zealand white)
Conditions: Oryctolagus cuniculus, read-out: IC50, inhibition of PAF-induced rabbit platelet aggregation
Experimental: Pharmacology Example 1: PAF-induced rabbit platelet aggregation
Blood was collected from the ear artery of a male New Zealand white rabbit and mixed with 3.8% sodium citrate in a 9:1 volume ratio. Platelet rich plasma (PRP) was obtained by centrifugation of the blood at 150 g for 10 min at room temperature. The number of platelets was adjusted to 3×10^8 platelets/ml with platelet poor plasma. Platelet aggregation was monitored by continuous recording of light transmission in a dual-channel aggregometer (Chrono-Log 560-VS) coupled with a two channel recorder (Chrono-Log 707). Stirred PRP was treated with various concentrations of the test compounds or vehicle (0.5% DMSO) for 2 min and then PAF(5×10^-9 M) was added to induce platelet aggregation.
Inhibition values were calculated by comparing the extent of aggregation obtained in the presence of the vehicle alone (0.5% DMSO) and in the presence of a test compound. Log concentration-response curves were generated and the IC50 values were determined by regression analysis.
Table 1 lists results from this assay for inhibition of PAF-induced rabbit platelet aggregation for illustrative examples of the compounds of this invention.

SMILES | IC50 (rabbit PRP, PAF 5×10^-9 M) [µM] | IC50 [µM]
CC1C(=O)OC2C(O)C34C5CC(C(C)(C)C)C36C(OC(=O)C6OCc3cc(NO)ccn3)OC4(C(=O)O5)C12O (stereo not drawn) [Example 113, 10-(2-(4-hydroxyaminopyridinyl)-methoxy)-Ginkgolide B] | 0.111 | 
CC1C(=O)OC2C(O)C34C5CC(C(C)(C)C)C36C(OC(=O)C6OCCc3ccccn3)OC4(C(=O)O5)C12O (stereo not drawn) [Example 101, 10-(2-pyridinyl)-ethoxy-Ginkgolide B] |  | 0.102
Cc1cc(COC2C(=O)OC3OC45C(=O)OC6CC(C(C)(C)C)C32C64C(O)C2OC(=O)C(C)C25O)cc(C)c1O (stereo not drawn) [Example 27] | 0.0621 | 
CC1C(=O)OC2C(O)C34C5CC(C(C)(C)C)C36C(OC(=O)C6OCc3ccc(N)cc3)OC4(C(=O)O5)C12O (stereo not drawn) [Example 75] |  | 0.116
Cc1ccc(COC2C(=O)OC3OC45C(=O)OC6CC(C(C)(C)C)C32C64C(O)C2OC(=O)C(C)C25O)cc1 (stereo not drawn) [Example 43, 10-(4'-methylbenzyloxy)-Ginkgolide B] | 0.0467 | 
CC1C(=O)OC2C(OCc3ccc(Cl)cc3Cl)C34C5CC(C(C)(C)C)C36C(OC(=O)C6OCc3ccc(Cl)cc3Cl)OC4(C(=O)O5)C12O (stereo not drawn) [Example 92, 1,10-bis(2',4'-dichlorobenzyloxy)-Ginkgolide B] | 0.102 | 
Cc1cnc(COC2C(=O)OC3OC45C(=O)OC6CC(C(C)(C)C)C32C64C(O)C2OC(=O)C(C)C25O)c(C)c1NC(=O)c1ccccc1 (stereo not drawn) [Example 105, 10-(4-benzoylamino-3,5-dimethyl-2-pyridinyl)-methoxy-Ginkgolide B] | 0.0325 | 
CC1C(=O)OC2C(O)C34C5CC(C(C)(C)C)C36C(OC(=O)C6OCCc3ccccc3)OC4(C(=O)O5)C12O (stereo not drawn) [Example 79, 10-(2'-phenylethoxy)-Ginkgolide B] | 0.117 | 
CC1C(=O)OC2C(O)C34C5CC(C(C)(C)C)C36C(OC(=O)C6OCCN3CCOCC3)OC4(C(=O)O5)C12O (stereo not drawn) [Example 119, 10-(2'-(1"-morpholinyl)-ethoxy)-Ginkgolide B] | 0.0541 | 
CC1C(=O)OC2C(OC(=O)c3ccccc3)C34C5CC(C(C)(C)C)C36C(OC(=O)C6O)OC4(C(=O)O5)C12O (stereo not drawn) [Example 89, 1-benzoyloxy-Ginkgolide B] | 0.0621 | 
CCCOc1ccc(C)nc1COC1C(=O)OC2OC34C(=O)OC5CC(C(C)(C)C)C21C53C(O)C1OC(=O)C(C)C14O (stereo not drawn) [Example 112] | 0.124 | 
CC1C(=O)OC2C(O)C34C5CC(C(C)(C)C)C36C(OC(=O)C6OCc3ccc(-c6ccccc6)cc3)OC4(C(=O)O5)C12O (stereo not drawn) [Example 81, 10-(4'-phenylbenzyloxy)-Ginkgolide B] | 0.0521 | 
CC1C(=O)OC2C(O)C34C5CC(C(C)(C)C)C36C(OC(=O)C6OCc3ccccc3)OC4(C(=O)O5)C12O (stereo not drawn) [Example 1, 10-benzyloxy-Ginkgolide B] | 0.0688 | 
CC1C(=O)OC2C(O)C34C5CC(C(C)(C)C)C36C(OC(=O)C6OCCn3cncn3)OC4(C(=O)O5)C12O (stereo not drawn) [Example 120, 10-(2'-(1"-(1",2",4"-triazolyl)-ethoxy))-Ginkgolide B] | 0.0621 | 
CC1C(=O)OC2C(O)C34C5CC(C(C)(C)C)C36C(OC(=O)C6OCCI)OC4(C(=O)O5)C12O (stereo not drawn) [Example 117, 10-(2'-iodoethoxy)-Ginkgolide B] |  | 0.0534
Cc1ccccc1COC1C(=O)OC2OC34C(=O)OC5CC(C(C)(C)C)C21C53C(O)C1OC(=O)C(C)C14O (stereo not drawn) [Example 41, 10-(2'-methylbenzyloxy)-Ginkgolide B] | 0.0741 | 
CCOc1ccnc(COC2C(=O)OC3OC45C(=O)OC6CC(C(C)(C)C)C32C64C(O)C2OC(=O)C(C)C25O)c1 (stereo not drawn) [Example 110] | 0.157 | 
COCCOCOc1ccc(COC2C(=O)OC3OC45C(=O)OC6CC(C(C)(C)C)C32C64C(O)C2OC(=O)C(C)C25O)nc1 (stereo not drawn) [Example 114] |  | 0.139
CC1C(=O)OC2C(O)C34C5CC(C(C)(C)C)C36C(OC(=O)C6OCc3cccnc3)OC4(C(=O)O5)C12O (stereo not drawn) [Example 108, 10-(3-pyridinyl)-methoxy-Ginkgolide B] | 0.134 | 
CC1C(=O)OC2C(O)C34C5CC(C(C)(C)C)C36C(OC(=O)C6OCc3ccccc3F)OC4(C(=O)O5)C12O (stereo not drawn) [Example 87, 10-(2'-fluorobenzyloxy)-Ginkgolide B] |  | 0.107
CC1C(=O)OC2C(O)C34C5CC(C(C)(C)C)C36C(OC(=O)C6OCCBr)OC4(C(=O)O5)C12O (stereo not drawn) [Example 116, 10-(2'-bromoethoxy)-Ginkgolide B] | 0.113 | 
COc1cc(COC2C(=O)OC3OC45C(=O)OC6CC(C(C)(C)C)C32C64C(O)C2OC(=O)C(C)C25O)cc(OC)c1OC (stereo not drawn) [Example 15, 10-(3',4',5'-trimethoxybenzyloxy)-Ginkgolide B] | 0.0621 | 
Cc1cnc(COC2C(=O)OC3OC45C(=O)OC6CC(C(C)(C)C)C32C64C(O)C2OC(=O)C(C)C25O)c(C)c1[N+](=O)[O-] (stereo not drawn) [Example 98, 10-(3,5-dimethyl-4-nitro-2-pyridinyl)-methoxy-Ginkgolide B] | 0.131 | 

SMILES | IC50 (rabbit PRP, PAF 5×10^-9 M) [µM] | IC50 [µM]
CC1C(=O)OC2C(O)C34C5CC(C(C)(C)C)C36C(OC(=O)C6OCc3ccc(F)cc3)OC4(C(=O)O5)C12O (stereo not drawn) [Example 85, 10-(4'-fluorobenzyloxy)-Ginkgolide B] | 0.0321 | 
CC1C(=O)OC2C(OCc3ccc(C(F)(F)F)cc3)C34C5CC(C(C)(C)C)C36C(OC(=O)C6OCc3ccc(C(F)(F)F)cc3)OC4(C(=O)O5)C12O (stereo not drawn) [Example 95] | 0.0871 | 
CC1C(=O)OC2C(O)C34C5CC(C(C)(C)C)C36C(OC(=O)C6OCc3ccc(F)cc3F)OC4(C(=O)O5)C12O (stereo not drawn) [Example 86, 10-(2',4'-difluorobenzyloxy)-Ginkgolide B] |  | 0.0501
Cc1cc(COC2C(=O)OC3OC45C(=O)OC6CC(C(C)(C)C)C32C64C(O)C2OC(=O)C(C)C25O)cc(N)c1O (stereo not drawn) [Example 35] | 0.101 | 
COc1cc(C(=O)OC2C(=O)OC3OC45C(=O)OC6CC(C(C)(C)C)C32C64C(O)C2OC(=O)C(C)C25O)cc(OC)c1OC (stereo not drawn) [Example 80, 10-(3',4'.5'-trimethoxybenzoyloxy)-Ginkgolide B] | 0.114 | 
CC1C(=O)OC2C(O)C34C5CC(C(C)(C)C)C36C(OC(=O)C6OCc3cccc(C(F)(F)F)c3)OC4(C(=O)O5)C12O (stereo not drawn) [Example 93, 10-(3'-trifiuoromethylbenzyloxy)-Ginkgolide B] | 0.0731 | 
Cc1cnc(COC2C(=O)OC3OC45C(=O)OC6CC(C(C)(C)C)C32C64C(O)C2OC(=O)C(C)C25O)c(C)c1NO (stereo not drawn) [Example 104, 10-(3,5-dimethyl-4-hydroxyamino-2-pyridinyl)-methoxy-Ginkgolide B] | 0.11 | 
CC1C(=O)OC2C(O)C34C5CC(C(C)(C)C)C36C(OC(=O)C6OCc3ccc(O)c(O)c3)OC4(C(=O)O5)C12O (stereo not drawn) [Example 30] |  | 0.121
CC1C(=O)OC2C(O)C34C5CC(C(C)(C)C)C36C(OC(=O)C6OCc3ccc6ccccc6n3)OC4(C(=O)O5)C12O (stereo not drawn) [Example 102, 10-(2-quinolinyl)-methoxy-Ginkgolide B] | 0.131 | 
Cc1ccccc1COC1C(=O)OC2OC34C(=O)OC5CC(C(C)(C)C)C21C53C(OCc1ccccc1C)C1OC(=O)C(C)C14O (stereo not drawn) [Example 42, 1,10-bis(2'-methylbenzyloxy)-Ginkgolide B] | 0.0443 | 
CC1C(=O)OC2C(O)C34C5CC(C(C)(C)C)C36C(OC(=O)C6OCCN3CCCC3)OC4(C(=O)O5)C12O (stereo not drawn) [Example 122, 10-(2'-(1"-pyrrolidinyl)-ethoxy)-Ginkgolide B] | 0.0561 | 
CC1C(=O)OC2C(O)C34C5CC(C(C)(C)C)C36C(OC(=O)C6OC(=O)c3ccccc3)OC4(C(=O)O5)C12O (stereo not drawn) [Example 88, 10-benzoyloxy-Ginkgolide B] |  | 0.0482
CC1C(=O)OC2C(O)C34C5CC(C(C)(C)C)C36C(OC(=O)C6OCc3cccc([N+](=O)[O-])c3)OC4(C(=O)O5)C12O (stereo not drawn) [Example 63] |  | 0.0627
CCCCc1ccc(COC2C(=O)OC3OC45C(=O)OC6CC(C(C)(C)C)C32C64C(O)C2OC(=O)C(C)C25O)nc1 (stereo not drawn) [Example 100, 10-(5-butyl-2-pyridinyl)-methoxy-Ginkgolide B] | 0.0521 | 
Cc1cnc(COC2C(=O)OC3OC45C(=O)OC6CC(C(C)(C)C)C32C64C(O)C2OC(=O)C(C)C25O)c(C)c1N(O)C(=O)c1ccccc1 (stereo not drawn) [Example 106, 10-(4-N-benzoyl-N-hydroxyamino-3,5-dimethyl-2-pyridinyl)-methoxy Ginkgolide B] | 0.0471 | 
COc1cccc(COC2C(=O)OC3OC45C(=O)OC6CC(C(C)(C)C)C32C64C(O)C2OC(=O)C(C)C25O)c1 (stereo not drawn) [Example 91, 10-(3'-methoxybenzyloxy)-Ginkgolide B] | 0.0931 | 
COc1ccc(COC2C(=O)OC3OC45C(=O)OC6CC(C(C)(C)C)C32C64C(O)C2OC(=O)C(C)C25O)cc1 (stereo not drawn) [Example 14, 10-(4'-methoxybenzyloxy)-Ginkgolide B] | 0.0858 | 
COc1cc(COC2C(=O)OC3OC45C(=O)OC6CC(C(C)(C)C)C32C64C(O)C2OC(=O)C(C)C25O)ccc1O (stereo not drawn) [Example 28] | 0.0371 | 
CC1C(=O)OC2C(O)C34C5CC(C(C)(C)C)C36C(OC(=O)C6OCc3ccc(Cl)c(Cl)c3)OC4(C(=O)O5)C12O (stereo not drawn) [Example 11] | 0.101 | 
CC1C(=O)OC2C(O)C34C5CC(C(C)(C)C)C36C(OC(=O)C6OCc3ccc(O)cc3)OC4(C(=O)O5)C12O (stereo not drawn) [Example 25] | 0.0571 | 
CC1C(=O)OC2C(O)C34C5CC(C(C)(C)C)C36C(OC(=O)C6OCc3ccc(OC(F)(F)F)cc3)OC4(C(=O)O5)C12O (stereo not drawn) [Example 24] |  | 0.0421
CC1C(=O)OC2C(O)C34C5CC(C(C)(C)C)C36C(OC(=O)C6OCc3cc([N+](=O)[O-])ccn3)OC4(C(=O)O5)C12O (stereo not drawn) [Example 111, 10-(4-nitro-2-myridinyl)-methoxy Ginkgolide B] | 0.107 | 
